Source: US10407422B2, “Triazolopyridine inhibitors of myeloperoxidase” (priority 2015, dated 2019)

Each compound was assayed against myeloperoxidase (MPO) (Homo sapiens (Human), UniProt P05164) (assay: MPO peroxidation assay (Amplex Red assay)). Conditions: potency range class.
Format: biochemical
Description: MPO Peroxidation Assay (Amplex Red Assay) MPO peroxidation activity was measured in 100 mM KPi (pH 7.4) by utilizing the non-fluorescent reagent Amplex Red (Invitrogen Cat. #A12222) which can be oxidized to the highly fluorescent resorufin. Amplex Red is oxidized by the peroxidase action of MPO to resorufin. Reactions were carried out in 50 μL total volume by adding a 25 μL mixture of 200 pM myeloperoxidase and 40 nM H2O2(Sigma #349887) to 100 nL inhibitor in 100% DMSO in a 384 well Perkin Elmer Optiplate. Enzyme and compound were preincubated for ten minutes at room temperature. After the ten minute preincubation, 25 μL of an Amplex Red mixture containing 200 μM Amplex Red and 10 mM H2O2 was added to the plate. Kinetic determinations were carried out immediately on a Perkin Elmer Envision (15 minute kinetic read, Ex: 535 nm, Em: 590 nm). IC50 values were calculated by determining the slope of the linear portion of the kinetic trace (180-540 secs), and using that calculated slope to determine % inhibition occurring at each concentration of inhibitor using the following equation: [formula] where A=minimal Y value (activity level of inhibited sample), B=maximal Y value (activity level of uninhibited sample), C=Log IC50, D=Hill Slope, x=concentration of inhibitor. MPO Chlorination Assay (APF Assay)

myeloperoxidase (MPO), sequence (P05164 49-745): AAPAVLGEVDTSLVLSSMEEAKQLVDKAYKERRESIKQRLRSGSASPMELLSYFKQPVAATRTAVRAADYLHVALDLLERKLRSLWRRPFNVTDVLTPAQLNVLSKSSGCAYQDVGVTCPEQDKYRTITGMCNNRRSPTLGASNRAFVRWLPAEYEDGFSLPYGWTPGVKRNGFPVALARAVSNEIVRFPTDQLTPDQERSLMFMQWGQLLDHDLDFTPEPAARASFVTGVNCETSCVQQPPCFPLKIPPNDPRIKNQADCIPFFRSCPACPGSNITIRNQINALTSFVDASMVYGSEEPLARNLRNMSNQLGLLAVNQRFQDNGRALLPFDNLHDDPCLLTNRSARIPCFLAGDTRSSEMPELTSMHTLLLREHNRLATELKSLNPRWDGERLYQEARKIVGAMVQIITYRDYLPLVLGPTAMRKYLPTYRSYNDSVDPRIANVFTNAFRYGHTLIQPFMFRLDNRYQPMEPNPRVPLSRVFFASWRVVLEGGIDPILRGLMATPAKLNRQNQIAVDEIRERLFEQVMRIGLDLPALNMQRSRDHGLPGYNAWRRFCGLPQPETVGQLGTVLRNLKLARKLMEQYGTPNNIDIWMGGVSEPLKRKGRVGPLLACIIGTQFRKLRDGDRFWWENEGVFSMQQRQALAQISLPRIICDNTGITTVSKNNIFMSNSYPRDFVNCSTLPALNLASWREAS

Q: Which IC50 does the source give for `Nc1cc(Cc2cnn(-c3ccc(Br)cc3)c2)c2nn[nH]c2n1` [Example 8, 7-((1-(4-Bromophenyl)-1H-pyrazol-4-yl)methyl)-3H-[1,2,3]triazolo[4,5-b]pyridin-5-amine] here?
A: Its IC50 is 1 to 100 nM.

Q: `Nc1cc(Cc2cnn(-c3ccc4ccccc4c3)c2)c2nn[nH]c2n1` [Example 12, 7-((1-(Naphthalen-2-yl)-1H-pyrazol-4-yl)methyl)-3H-[1,2,3]triazolo[4,5-b]pyridin-5-amine] was tested. Which IC50 did it give?
A: The IC50 was 101 to 999 nM.

Q: How did the IC50 turn out when `Cc1ccc(-n2cc(Cc3cc(N)nc4[nH]nnc34)cn2)c2ccccc12` [Example 13, 7-((1-(4-Methylnaphthalen-1-yl)-1H-pyrazol-4-yl)methyl)-3H-[1,2,3]triazolo[4,5-b]pyridin-5-amine] was run?
A: The IC50 was 1 to 100 nM.

Q: For `Nc1cc(Cc2cnn(-c3cccc(C4CC4)c3)c2)c2nn[nH]c2n1` [Example 15, 7-((1-(3-Cyclopropylphenyl)-1H-pyrazol-4-yl)methyl)-3H-[1,2,3]triazolo[4,5-b]pyridin-5-amine], which IC50 is on record?
A: Its IC50 is 1 to 100 nM.

Q: How did the IC50 turn out when `Nc1cc(Cc2cnn(-c3cccc4cccnc34)c2)c2nn[nH]c2n1` [Example 16, 7-((1-(Quinolin-8-yl)-1H-pyrazol-4-yl)methyl)-3H-[1,2,3]triazolo[4,5-b]pyridin-5-amine] was run?
A: Its IC50 is 101 to 999 nM.

Q: How did the IC50 turn out when `Nc1cc(Cc2cnn(-c3ccc(F)cn3)c2)c2nn[nH]c2n1` [Example 17, 7-((1-(5-Fluoropyridin-2-yl)-1H-pyrazol-4-yl)methyl)-3H-[1,2,3]triazolo[4,5-b]pyridin-5-amine] was run?
A: Its IC50 is 1 to 100 nM.

Q: `Nc1cc(Cc2cnn(-c3cncc4ccccc34)c2)c2nn[nH]c2n1` [Example 18, 7-((1-(Isoquinolin-4-yl)-1H-pyrazol-4-yl)methyl)-3H-[1,2,3]triazolo[4,5-b]pyridin-5-amine] was tested. Which IC50 did it give?
A: The IC50 was 1 to 100 nM.

Q: With `Nc1cc(Cc2cnn(-c3cncc(F)c3)c2)c2nn[nH]c2n1` [Example 22, 7-((1-(5-Fluoropyridin-3-yl)-1H-pyrazol-4-yl)methyl)-3H-[1,2,3]triazolo[4,5-b]pyridin-5-amine] as the compound, how does the IC50 read?
A: The IC50 was 101 to 999 nM.

Q: Which IC50 does the source give for `COc1cccc(-n2cc(Cc3cc(N)nc4[nH]nnc34)cn2)c1` [Example 23, 7-((1-(3-Methoxyphenyl)-1H-pyrazol-4-yl)methyl)-3H-[1,2,3]triazolo[4,5-b]pyridin-5-amine] here?
A: The IC50 was 1 to 100 nM.

Q: With `Cc1ccc(-n2cc(Cc3cc(N)nc4[nH]nnc34)cn2)cc1` [Example 26, 7-((1-(4-Methylphenyl)-1H-pyrazol-4-yl)methyl)-3H-[1,2,3]triazolo[4,5-b]pyridin-5-amine] as the compound, how does the IC50 read?
A: Its IC50 is 101 to 999 nM.

Q: `COc1ccc(-n2cc(Cc3cc(N)nc4[nH]nnc34)cn2)cc1` [Example 27, 7-((1-(4-Methoxyphenyl)-1H-pyrazol-4-yl)methyl)-3H-[1,2,3]triazolo[4,5-b]pyridin-5-amine] was tested. Which IC50 did it give?
A: The IC50 was 101 to 999 nM.

Q: For `COc1ccccc1-n1cc(Cc2cc(N)nc3[nH]nnc23)cn1` [Example 28, 7-((1-(2-Methoxyphenyl)-1H-pyrazol-4-yl)methyl)-3H-[1,2,3]triazolo[4,5-b]pyridin-5-amine], which IC50 is on record?
A: The IC50 was 101 to 999 nM.

Q: Which IC50 does the source give for `Nc1cc(Cc2cnn(-c3cccc(Br)c3)c2)c2nn[nH]c2n1` [Example 29, 7-((1-(3-Bromophenyl)-1H-pyrazol-4-yl)methyl)-3H-[1,2,3]triazolo[4,5-b]pyridin-5-amine] here?
A: Its IC50 is 1 to 100 nM.

Q: How did the IC50 turn out when `Nc1cc(Cc2cnn(-c3cccnc3)c2)c2nn[nH]c2n1` [Example 30, 7-((1-(Pyridin-3-yl)-1H-pyrazol-4-yl)methyl)-3H-[1,2,3]triazolo[4,5-b]pyridin-5-amine] was run?
A: Its IC50 is 1 to 100 nM.

Q: How did the IC50 turn out when `COc1cc(-n2cc(Cc3cc(N)nc4[nH]nnc34)cn2)ccn1` [Example 32, 7-((1-(2-Methoxypyridin-4-yl)-1H-pyrazol-4-yl)methyl)-3H-[1,2,3]triazolo[4,5-b]pyridin-5-amine] was run?
A: Its IC50 is 101 to 999 nM.

Q: For `COc1ccc2cccc(-n3cc(Cc4cc(N)nc5[nH]nnc45)cn3)c2c1` [Example 35, 7-((1-(7-Methoxynaphthalen-1-yl)-1H-pyrazol-4-yl)methyl)-3H-[1,2,3]triazolo[4,5-b]pyridin-5-amine], which IC50 is on record?
A: The IC50 was 1 to 100 nM.

Q: With `Nc1cc(Cc2cnn(-c3cccc(OCc4ccccc4)c3)c2)c2nn[nH]c2n1` [Example 37, 7-((1-(3-(Benzyloxy)phenyl)-1H-pyrazol-4-yl)methyl)-3H-[1,2,3]triazolo[4,5-b]pyridin-5-amine] as the compound, how does the IC50 read?
A: The IC50 was 1 to 100 nM.

Q: With `Nc1cc(Cc2cnn(-c3ccc(=O)[nH]c3)c2)c2nn[nH]c2n1` [Example 38, 5-(4-((5-Amino-3H-[1,2,3]triazolo[4,5-b]pyridin-7-yl)methyl)-1H-pyrazol-1-yl)pyridin-2(1H)-one] as the compound, how does the IC50 read?
A: The IC50 was 101 to 999 nM.

Q: For `Nc1cc(Cc2cnc(-c3ccc(F)cc3)s2)c2nn[nH]c2n1` [Example 47, 7-((2-(4-Fluorophenyl)thiazol-5-yl)methyl)-3H-[1,2,3]triazolo[4,5-b]pyridin-5-amine], which IC50 is on record?
A: Its IC50 is 101 to 999 nM.

Q: `Nc1cc(Cc2ccc(-c3ccccc3)s2)c2nn[nH]c2n1` [Example 49, 7-((5-Phenylthiophen-2-yl)methyl)-3H-[1,2,3]triazolo[4,5-b]pyridin-5-amine] was tested. Which IC50 did it give?
A: The IC50 was 1 to 100 nM.

Q: For `Cc1cc(Cc2cc(N)nc3[nH]nnc23)sc1C` [Example 50, 7-((4,5-Dimethylthiophen-2-yl)methyl)-3H-[1,2,3]triazolo[4,5-b]pyridin-5-amine], which IC50 is on record?
A: The IC50 was 101 to 999 nM.

Q: `Nc1cc(Cc2ccc(-c3ccccn3)s2)c2nn[nH]c2n1` [Example 51, 7-((5-(Pyridin-2-yl)thiophen-2-yl)methyl)-3H-[1,2,3]triazolo[4,5-b]pyridin-5-amine] was tested. Which IC50 did it give?
A: The IC50 was 1 to 100 nM.

Q: Which IC50 does the source give for `CS(=O)(=O)c1ccc(Cn2cc(Cc3cc(N)nc4[nH]nnc34)cn2)cc1` [Example 58, 7-((1-(4-(Methylsulfonyl)benzyl)-1H-pyrazol-4-yl)methyl)-3H-[1,2,3]triazolo[4,5-b]pyridin-5-amine] here?
A: The IC50 was 101 to 999 nM.

Q: For `CC(c1ccccc1)n1cc(Cc2cc(N)nc3[nH]nnc23)cn1` (centres unmarked) [Example 63, 7-((1-(1-Phenylethyl)-1H-pyrazol-4-yl)methyl)-3H-[1,2,3]triazolo[4,5-b]pyridin-5-amine], which IC50 is on record?
A: Its IC50 is 1 to 100 nM.

Q: For `Nc1cc(Cc2ccc(C(F)(F)F)o2)c2nn[nH]c2n1` [Example 70, 7-{[5-(Trifluoromethyl)furan-2-yl]methyl}-3H-[1,2,3]triazolo[4,5-b]pyridin-5-amine], which IC50 is on record?
A: Its IC50 is 1000 to 10000 nM.

Q: For `NC(=O)c1ccc(Cn2cc(Cc3cc(N)nc4[nH]nnc34)cn2)cc1` [Example 73, 4-((4-((5-Amino-3H-[1,2,3]triazolo[4,5-b]pyridin-7-yl)methyl)-1H-pyrazol-1-yl)methyl)benzamide], which IC50 is on record?
A: The IC50 was 1000 to 10000 nM.
